Values joined by “and” are separate entries in the source; they are usually repeats but may differ in a detail not shown here. Equal values may be shown once.
Tested on: 885512-296-R-J2-PDC complex spheroid growth, % test/control
Experiment: Anticancer human tumor 885512-296-R-J2-PDC patient-derived breast carcinoma cell line growth inhibition [Asc]
Details: for viability, T/C: stronger effect = lower value
Outline: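 Stromal components (HUVEC and hMSC) are co-assembled with the cancer cells into multicellular spheroids. Drugs are then added singly or paired, at concentrations falling by half-log increments from a clinically achievable maximum, capped at 10 microM without known Cmax.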
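Note: spheroids exposed to compounds for seven days.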
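Throughout, for viability, T/C: 100% = DMSO vehicle control wells.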

SMILES: C=C(F)C(=O)N1CCN(c2nc(OCC3CCCN3C)nc3c2CCN(c2cccc4cccc(Cl)c24)C3)CC1CC#N (configuration not stated) + CCN1C(C(=O)NC23CCC(C(=O)O)(CC2)CC3)C(c2cccc(Cl)c2F)C2(C(=O)Nc3cc(Cl)ccc32)C12CCCCC2
- IC50 (curve of first compound, second compound 0.03 µM): 2290 nM
- IC50 (curve of first compound, second compound 0.0949 µM): 2460 nM
- IC50 (curve of first compound, second compound 0.3 µM): 2240 nM
- IC50 (curve of first compound, second compound 0.949 µM): 1900 nM
- IC50 (curve of first compound, second compound 3 µM): 1050 nM
- viability, T/C (second compound 0.03 µM, first compound 0.0316 µM): 96.3%
- viability, T/C (second compound 0.03 µM, first compound 0.1 µM): 110%
- viability, T/C (second compound 0.03 µM, first compound 0.316 µM): 101%
- viability, T/C (second compound 0.03 µM, first compound 1 µM): 110%
- viability, T/C (second compound 0.03 µM, first compound 3.16 µM): 28.6%
- viability, T/C (second compound 0.03 µM, first compound 10 µM): 0.11%
- viability, T/C (second compound 0.0949 µM, first compound 0.0316 µM): 118%
- viability, T/C (second compound 0.0949 µM, first compound 0.1 µM): 117%
- viability, T/C (second compound 0.0949 µM, first compound 0.316 µM): 120%
- viability, T/C (second compound 0.0949 µM, first compound 1 µM): 107%
- viability, T/C (second compound 0.0949 µM, first compound 3.16 µM): 34%
- viability, T/C (second compound 0.0949 µM, first compound 10 µM): 0.38%
- viability, T/C (second compound 0.3 µM, first compound 0.0316 µM): 94%
- viability, T/C (second compound 0.3 µM, first compound 0.1 µM): 95.1%
- viability, T/C (second compound 0.3 µM, first compound 0.316 µM): 98.2%
- viability, T/C (second compound 0.3 µM, first compound 1 µM): 102%
- viability, T/C (second compound 0.3 µM, first compound 3.16 µM): 29.5%
- viability, T/C (second compound 0.3 µM, first compound 10 µM): 0.1%
- viability, T/C (second compound 0.949 µM, first compound 0.0316 µM): 69%
- viability, T/C (second compound 0.949 µM, first compound 0.1 µM): 72%
- viability, T/C (second compound 0.949 µM, first compound 0.316 µM): 76.9%
- viability, T/C (second compound 0.949 µM, first compound 1 µM): 90.1%
- viability, T/C (second compound 0.949 µM, first compound 3.16 µM): 28.6%
- viability, T/C (second compound 0.949 µM, first compound 10 µM): 0.1%
- viability, T/C (second compound 3 µM, first compound 0.0316 µM): 43%
- viability, T/C (second compound 3 µM, first compound 0.1 µM): 43.3%
- viability, T/C (second compound 3 µM, first compound 0.316 µM): 51.5%
- viability, T/C (second compound 3 µM, first compound 1 µM): 67.5%
- viability, T/C (second compound 3 µM, first compound 3.16 µM): 19.8%
- viability, T/C (second compound 3 µM, first compound 10 µM): 0.15%

SMILES: C#Cc1c(F)ccc2cc(O)cc(-c3ncc4c(N5CC6CCC(C5)N6)nc(OCC56CCCN5CC(F)C6)nc4c3F)c12 (configuration not stated)
- viability, T/C (compound 0.0316 µM): 93.6% and 96.8% and 95.3%
- viability, T/C (compound 0.1 µM): 103% (2×) and 91.5%
- viability, T/C (compound 0.316 µM): 89.2% and 72.3% and 99.9%
- viability, T/C (compound 1 µM): 99.7% and 72.6% and 93.5%
- viability, T/C (compound 3.16 µM): 101% and 93.8% and 87.5%
- viability, T/C (compound 10 µM): 97.2% and 80.2% and 71.9%
- IC50 (curve of compound): > 10000 nM

SMILES: CNC(C)C(=O)NC1CN(S(=O)(=O)c2cccc(S(=O)(=O)N3CCC4CCC(C(=O)NC(c5ccccc5)c5ccccc5)N4C(=O)C(NC(=O)C(C)NC)C3)c2)CCC2CCC(C(=O)NC(c3ccccc3)c3ccccc3)N2C1=O (configuration not stated) + Cc1c(S(C)(=O)=O)c(-c2cc(F)cc(N3CCN(c4ccc(NS(=O)(=O)c5ccc(NC(CCN6CCC(C(=O)OCCCP(=O)(O)O)CC6)CSc6ccccc6)c(S(=O)(=O)C(F)(F)F)c5)cc4)CC3)c2)c(-c2ccc(Cl)cc2)n1C(C)C
- IC50 (curve of first compound, second compound 0.1 µM): > 1000 nM
- IC50 (curve of first compound, second compound 0.316 µM): > 1000 nM
- IC50 (curve of first compound, second compound 1 µM): > 1000 nM
- IC50 (curve of first compound, second compound 3.16 µM): > 1000 nM
- IC50 (curve of first compound, second compound 10 µM): > 1000 nM
- viability, T/C (second compound 0.1 µM, first compound 0.00316 µM): 78.5%
- viability, T/C (second compound 0.1 µM, first compound 0.01 µM): 89.6%
- viability, T/C (second compound 0.1 µM, first compound 0.0316 µM): 89.2%
- viability, T/C (second compound 0.1 µM, first compound 0.1 µM): 101%
- viability, T/C (second compound 0.1 µM, first compound 0.316 µM): 116%
- viability, T/C (second compound 0.1 µM, first compound 1 µM): 88.8%
- viability, T/C (second compound 0.316 µM, first compound 0.00316 µM): 80.1%
- viability, T/C (second compound 0.316 µM, first compound 0.01 µM): 92.6%
- viability, T/C (second compound 0.316 µM, first compound 0.0316 µM): 107%
- viability, T/C (second compound 0.316 µM, first compound 0.1 µM): 93.5%
- viability, T/C (second compound 0.316 µM, first compound 0.316 µM): 106%
- viability, T/C (second compound 0.316 µM, first compound 1 µM): 109%
- viability, T/C (second compound 1 µM, first compound 0.00316 µM): 90%
- viability, T/C (second compound 1 µM, first compound 0.01 µM): 100%
- viability, T/C (second compound 1 µM, first compound 0.0316 µM): 112%
- viability, T/C (second compound 1 µM, first compound 0.1 µM): 102%
- viability, T/C (second compound 1 µM, first compound 0.316 µM): 107%
- viability, T/C (second compound 1 µM, first compound 1 µM): 109%
- viability, T/C (second compound 3.16 µM, first compound 0.00316 µM): 94.7%
- viability, T/C (second compound 3.16 µM, first compound 0.01 µM): 92.7%
- viability, T/C (second compound 3.16 µM, first compound 0.0316 µM): 99.2%
- viability, T/C (second compound 3.16 µM, first compound 0.1 µM): 102%
- viability, T/C (second compound 3.16 µM, first compound 0.316 µM): 112%
- viability, T/C (second compound 3.16 µM, first compound 1 µM): 95.2%
- viability, T/C (second compound 10 µM, first compound 0.00316 µM): 112%
- viability, T/C (second compound 10 µM, first compound 0.01 µM): 103%
- viability, T/C (second compound 10 µM, first compound 0.0316 µM): 91.5%
- viability, T/C (second compound 10 µM, first compound 0.1 µM): 98%
- viability, T/C (second compound 10 µM, first compound 0.316 µM): 100%
- viability, T/C (second compound 10 µM, first compound 1 µM): 105%

— PubChem BioAssay AID1963447 (Molecular Pharmacology Branch, DTP, NCI, 2024)
